Test results as given in paper PMC10891067, “A co-assembly platform engaging macrophage scavenger receptor A for lysosome-targeting protein degradation” (Nature Communications, 2024).
Residues, ends and D or L forms follow the SMILES beside them. *: point of attachment. Fmoc = O=C(OCC1c2ccccc2-c2ccccc21)*; Ahx = NCCCCCC(=O)O

How the values were obtained:
[1] = biological target: T1, IL-17A (Mus musculus, UniProt Q62386); assay: Lysosome inhibition assay (LPT, BafA1); type: cell-based; set-up: host or cells: added exogenously to RAW264.7, SR-A-KO RAW264.7, U-118 MG, DC 2.4 or HaCaT cells; conditions: RAW264.7, 0.5 μg/ml IL-17A + 50 μM 17A-Lytaca, 6 h
T1 sequence (Q62386 26-158): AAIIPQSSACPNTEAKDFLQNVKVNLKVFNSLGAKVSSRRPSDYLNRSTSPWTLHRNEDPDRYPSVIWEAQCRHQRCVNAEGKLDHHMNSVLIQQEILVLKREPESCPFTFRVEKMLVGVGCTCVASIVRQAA
Description: To confirm the involvement of lysosomes, RAW264.7 cells were pretreated with PBS, LPT (0.1 mg/ml), or BafA1 (100 nM) for 2 h at 37 °C. […] The accumulation of IL-17A in the cells was then measured via flow cytometry, following the aforementioned procedure.

[2] = In vivo localization and clearance assay of 17A-Lytaca (IVIS); set-up: species or system mouse; conditions: psoriasis mice, i.p. Cy-labeled 17A-Lytaca (Cy5-fm-17Abp 5 mg/kg, Cy7-fm-SRAL 7.3 mg/kg)
Description: Fluorescence imaging in both the Cy5 and Cy7 channels was conducted using the in vivo imaging system (IVIS Spectrum) at 4, 8, 12, 24, and 48 h post-injection. Further, for biodistribution assessment, mice were sacrificed at 6 h post-injection, and skins along with major organs (heart, liver, spleen, lung, and kidney) were removed for ex vivo fluorescence imaging.

[3] = Serum clearance kinetics of 17A-Lytaca relevant peptides; type: in vivo, mouse; conditions: healthy mice, i.p. Cy-labeled 17A-Lytaca (Cy5-fm-17Abp 15 mg/kg, Cy3-fm-SRAL 22 mg/kg), IVIS, n = 3
Description: Serum samples were collected at 0, 1, 2, 3, 4, 8, 12, and 24 h for analysis. The fluorescence intensity of serum was measured with the in vivo imaging system (IVIS) spectrum.

[4] = biological target: T1, IL-17A; assay: IL-17A binding competition experiment with IL-17RA (IL-17A uptake); type: cell-based; set-up: host or cells: added exogenously to RAW264.7, SR-A-KO RAW264.7, U-118 MG, DC 2.4 or HaCaT cells; conditions: RAW264.7, with fi-SRAL and fi-17Abp mixture and IL-17A
Description: To verify the binding of the IL-17A by mixed fi-17Abp and fi-SRAL, RAW264.7 cells were treated with 0.5 μg/ml IL-17A, 50 μM mixed fi-SRAL and fi-17Abp and IL-17RA at 0, 0.0125, 0.025, 0.05, 0.1, or 0.2 μg/ml for 6 h. Then, flow cytometry analysis was used to measure the intracellular IL-17A level according to the procedure mentioned above.

Question: For `CO/C1=C\C(C)=C\[C@@H](C)[C@@H](O)[C@@H](C)C/C(C)=C/C=C/[C@H](OC)[C@@H]([C@@H](C)[C@@H](O)[C@H](C)[C@@]2(O)C[C@@H](O)[C@H](C)[C@@H](C(C)C)O2)OC1=O` [BafA1, Bafilomycin A1], which “IL-17A accumulation in cells with lysosome inhibitor (in words)” value [1] is on record?
Answer: significantly higher IL-17A accumulation in cells

Question: Which “Time up to which the peptide remained detectable in vivo” value [2] does the source give for `C[C@H](NC(=O)[C@H](CCC(=O)O)NC(=O)[C@H](C)NC(=O)[C@H](CCC(=O)O)NC(=O)[C@H](C)NC(=O)[C@H](CCC(=O)O)NC(=O)[C@H](C)NC(=O)[C@H](CCC(=O)O)NC(=O)[C@H](C)NC(=O)[C@H](CCC(=O)O)NC(=O)[C@H](C)NC(=O)[C@H](CCC(=O)O)NC(=O)[C@H](C)NC(=O)[C@H](CCC(=O)O)NC(=O)[C@H](C)NC(=O)[C@H](CCC(=O)O)NC(=O)[C@H](C)NC(=O)[C@H](CCC(=O)O)NC(=O)[C@H](C)NC(=O)[C@H](CCC(=O)O)NC(=O)[C@H](C)NC(=O)[C@H](CCC(=O)O)NC(=O)[C@H](C)NC(=O)[C@H](CCC(=O)O)NC(=O)[C@H](C)NC(=O)[C@H](CCC(=O)O)NC(=O)[C@H](C)NC(=O)[C@H](CCC(=O)O)NC(=O)[C@H](C)NC(=O)[C@H](CCC(=O)O)NC(=O)CCCCCNC(=O)OCC1c2ccccc2-c2ccccc21)C(N)=O` [fm-SRAL] ({Fmoc-Ahx}-EAEAEAEAEAEAEAEAEAEAEAEAEAEAEA-NH2) here?
Answer: 48 h

Question: What about the “Time up to which the serum fluorescent signal was detectable” value [3] of the same compound?
Answer: ≤ 8 h

Question: With “IL-17RA: IL-17A receptor protein used as competitor for the 17Abp binding domain of IL-17A” as the compound, how does the “Effect on intracellular IL-17A signal (in words)” value [4] read?
Answer: concentration-dependent attenuation

Question: With `CC(=O)N[C@@H](CC(C)C)C(=O)N[C@@H](CC(C)C)C(=O)N[C@H](C=O)CCCNC(=N)N` [LPT, Leupeptin] as the compound, how does the “IL-17A accumulation in cells with lysosome inhibitor (in words)” value [1] read?
Answer: significantly higher IL-17A accumulation in cells
